Here are results for four molecules from patent publication US20210196724A1, “BIARYL COMPOSITIONS AND METHODS FOR MODULATING A KINASE CASCADE” (Athenex, Inc., priority 2016, published 2021).

Values joined by “and” are separate entries in the source; they are usually repeats but may differ in a detail not shown here. Identical values can stand only once. Like-named read-outs stand apart in the source and are kept apart here.

The test system of data set [1] is GL261 cells. Put plainly: MTT cell growth inhibition (GI50), GL261. It counts as cell-based, murine. The following applies: 3 days. How it is done:
(§1) The drug concentration required to block net cell growth by 50% relative to a control sample is measured as the GI50. The GI50s for several of the compounds of the application were assayed as described.
(§2) MTT assay: U87 and GL261 cells were seeded in 96-well plate (6×10^3 cells in 100 μl of DMEM+10% FBS media per well) and incubated overnight at 37° C. with 5% CO2. All test compounds were diluted (10 point 2-fold serial dilution) in a separate 96-well plate to yield 10× of final concentrations (0.5-256 nM). A volume of 11 μl of 10× dilutions was added to appropriate wells (n=3). To value (reflecting the starting number of cells upon drug treatment) was determined by following steps as described below. After 3 days incubation at 37° C. with 5% CO2, 10 μl of MTT solution (5 mg/ml in PBS) was added to each well and plates were incubated at 37° C. for 3 h to allow MTT to form formazan crystals by reacting with metabolically active cells. 100 μl of 20% SDS was added to each well and plates were incubated overnight at 37° C. with 5% CO2. Afterward, OD570 was measured using microplate reader. The cell growth percentage of control was calculated according to percentage of control=(T−T0)/(C−T0)×100% or OD value of the test well exposure to test drug—OD value at time zero/(OD of the control well without drug treatment−OD value at time zero)×100%. Growth inhibition curves and GI50 were determined using GraphPad Prism 5 software.

Data set [2] has as its system U87 cells. Nature of the data set: MTT cell growth inhibition (GI50), U87. It counts as cell-based, human. The following applies: 3 days. How it is done: as §1, §2
The test system of data set [3] is Jurkat. Nature of the data set: Cell growth inhibition (GI50), Jurkat. It counts as cell-based. How it is done: as §1
In data set [4] the test system is HT-29. Put plainly: Cell growth inhibition (GI50), HT-29. It is filed as cell-based. How it is done:
as §1

Data set [5] is described as follows: Pharmacokinetic properties after IV and PO administration. It is filed as in vivo.
Data set [6] can be described thus: Brain permeability (brain:plasma ratio). It is filed as in vivo. The note with it: read-out: Brain:Plasma (B:P) Average. As for the experimental part:
Brain permeability can be measured by various methods known in the art. For example, brain permeability can be measured by calculating the ratio between the concentration of a compound of the application in the brain and the concentration of the compound in the plasma (i.e., BP ratio). In one aspect, a compound of the application has a B:P ratio of at least 1.0, 1.1, 1.2, 1.3, 1.4, 1.5, 1.6, 1.7, 1.8, 1.9, or 2.0 at 1 hour after administration of the compound to a subject. In one aspect, a compound of the application has a B:P ratio of at least 1.5, 1.6, 1.7, 1.8, 1.9, or 2.0 at 1 hour after administration of the compound to a subject. In one aspect, a compound of the application has a B:P ratio of at least 1.4, 1.5, 1.6, 1.7, 1.8, 1.9, 2.0, 2.1, 2.2, or 2.3 at 2 hours after administration of the compound to a subject. In one aspect, a compound of the application has a B:P ratio of at least 1.9, 2.0, 2.1, 2.2, or 2.3 at 2 hours after administration of the compound to a subject. In one aspect, a compound of the application has a B:P ratio of at least 1.7, 1.8, 1.9, 2.0, 2.1, 2.2, 2.3, 2.4, or 2.5 at 4 hours after administration of the compound to a subject. In one aspect, a compound of the application has a B:P ratio of at least 2.2, 2.3, 2.4, or 2.5 at 4 hours after administration of the compound to a subject.

Data set [7] deals with GL261 glioblastoma cells injected intra-cranially. Put plainly: GL261 murine model of glioblastoma (intra-cranial), survival. It counts as in vivo, C57BL/6 mice. As for the experimental part:
The anti-tumor activity of Compound 121, as a single agent, was studied in the GL261 murine model of human glioblastoma. Murine GL261 glioblastoma cells were injected intra-cranially into syngeneic, immune-competent hosts (C57BL/6). In order for oral therapeutics to be effective, it is required that the therapeutic be able to cross the blood-brain barrier in order to achieve sufficient levels in the brain to exert an anti-tumor effect. Survival was the major endpoint for the study. The mice either succumbed to the tumor or were euthanized based on severity of tumor-dependent morbidity. Mice that achieved long-term survival (>80 days) were re-challenged with a sub-cutaneous injection of GL261 cells to assess the development of a durable immune response to GL261. Mice that underwent the re-challenge phase were not treated with Compound 121.
GL261 cells (1×10^5 cells) were implanted into the brain of a C57BL/6 host using stereotactice injection. Compound 121 was dosed orally once per day at 1 mg/kg (N=10) for 45 days beginning 3 days post-tumor cell implantation. Compound Y was dosed orally once per day at 5 mg/kg (N=10) for 45 days beginning 3 days post-tumor implantation. A vehicle was administered to a control group of mice (N=10) per the same schedule.
Mice were monitored for signs of tumor dependent morbidity, including head tilt, hunching, ataxia, and limb weakness. Mice were euthanized when cumulative signs of high tumor burden were evident.

Where [8] appears, read: in vivo, IV Administration (5 mg/kg).

The GI50 is the concentration at which growth is held to half of that of the control. High values mean less potent growth inhibition, low ones more potent growth inhibition. Regarding `Cc1cc(N2CCOC[C@@H]2C)ccc1-c1ccc(CC(=O)NCc2ccccc2)nc1` (stereo in doubt) [Compound 104], the GI50 in data set [1] was 10 nM and 5.3 nM; in data set [2] it was 4 nM; in data set [3] it was 2.5 nM; in data set [3] (Homo sapiens) it was 2.3 nM; in data set [4] (HT-29), 2.5 nM; in data set [4] (Homo sapiens, HT-29, HT-29), 3.1 nM.
With `C[C@H]1COCCN1c1ccc(-c2ccc(CC(=O)NCc3ccccc3)nc2)cc1` [Compound 108], the GI50 stood at 6.8 nM in data set [1] (Mus musculus, GL261, 72 h); 6.6 nM in data set [2] (Homo sapiens, U-87 MG, 72 h); 3 nM in data set [4] (Homo sapiens, HT-29, HT-29).
Regarding `Cc1nc(CC(=O)NCc2cccc(F)c2)ccc1-c1ccc(N2CCOC[C@@H]2C)cc1` [Compound 113], the GI50 in data set [1] is 120 nM and 99 nM; in data set [1] (Mus musculus, GL261, 72 h), 180 nM; in data set [4] (Homo sapiens, HT-29, HT-29) it was 46 nM.
In general, Cmax refers to the highest concentration seen after dosing. For the molecule `O=C(Cc1ccc(-c2ccc(N3CCOCC3)cc2)cn1)NCc1cccc(F)c1` [Compound Y, reference compound], in data set [5] (IV Administration (5 mg/kg)), the “AUCIV (dose-normalized)” value was found to be 553 kg·ng·h/mL/mg and the t0.5 is reported as 0.364 h. Also, in data set [5] (PO 20 mg/kg vs IV 5 mg/kg), the “F (%) = 100 × AUCpo/AUCIV” value was 39.3%. Also, the “AUCPO (dose-normalized)” value in data set [5] (PO Administration (20 mg/kg)) was determined as 217 kg·ng·h/mL/mg. Moreover, in data set [5] (setting [8]), the C0 amounted to 4620 ng/mL and the clearance is 30.2 mL/min/kg. For the same molecule, the Vd in data set [5] (in vivo, IV Administration (5 mg/kg), read-out: Vss) is 0.962 L/kg. In addition, the peak level in data set [5] (in vivo, PO Administration (20 mg/kg)) (Cmax) was 2590 ng/mL. For the same molecule, the Kp at 0.25 h in data set [6] (time point 0.25 h) is 1.56. Further, the Kp at 0.5 h in data set [6] (time point 0.5 h) was determined as 1.46. The Kp at 1 h in data set [6] (time point 1 h) turned out to be 1.33. In addition, the Kp at 2 h in data set [6] (time point 2 h) was 0.712. Further, the Kp at 4 h in data set [6] (time point 4 h) came out at 0.834. Also, the Kp at 6 h in data set [6] (time point 6 h) turned out to be 0.633. For the same molecule, in data set [6] (time point 8 h), the Kp at 8 h was 0.685. The “Activity in GL261 model” value in data set [7] (dosed once daily at >20 mg/kg) is listed as “demonstrated activity”. Also, the Effect on survival entry in data set [7] (orally once per day at 5 mg/kg for 45 days) is given as “only a marginal, insignificant effect on survival”.
